Reference: PubChem BioAssay (NCI)
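These data come from cells grown in 96-well plates and exposed to compound for 48 hours at five concentrations. Definition used: TGI = concentration required for complete inhibition of growth.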

Test system: PC-3 prostate
Experiment: NCI tumour cell line growth inhibition, 48 h

SMILES	TGI
C=C(Nc1nc2ccc(C)cc2s1)C(=O)C(CC)C(=O)C(CC)CC1C(=O)NC(=O)NC1=O (configuration not stated)	> 100 µM
COCOC1C=CCCCC2=CC(C)=C(CC1)O2 (configuration not stated)	> 100 µM
C=CCN1CCC(O)(c2cc(C(=O)OCC)[nH]c2-c2cc(C)no2)C1 (configuration not stated)	> 100 µM
CN(C)/N=C1/CCC(C(F)(F)F)(C(F)(F)F)O1	> 100 µM
N#Cc1c(-c2ccc(Cl)cc2)c(C#N)c(=O)n(NS(=O)(=O)c2ccccc2)c1O	48.8 µM
COC(=O)c1nsc(OC)c1Cl	> 100 µM
CNCCCn1c2ccccc2c2c3c(c(-c4ccsc4)cc21)C(=O)NC3=O	1.78 µM
C=CCN(C(=O)CNC(=O)C(F)(F)F)c1cc(OCc2ccccc2)c2c(c1)c(C)cn2S(=O)(=O)c1ccccc1	> 100 µM
CSc1ccsc1-c1sc(-c2cc(SC)c(-c3sc(-c4cc(SC)c(-c5sccc5SC)s4)cc3SC)s2)cc1SC	> 100 µM
COC1(OC)CCCc2c1no[n+]2[O-]	> 100 µM
CC1(C)OC[C@@H]([C@H](O)C2C=CC(=O)S2)O1 (some centres not stated)	> 100 µM
O=C1c2ccccc2C(=O)c2c1nc1ccccc1c2-c1cncc(-c2c3c(nc4ccccc24)C(=O)c2ccccc2C3=O)c1	> 100 µM
CC(C)[Si]1(C(C)C)OCC2OC3(CO)C(Oc4nc(=O)ccn43)C2O[Si](C(C)C)(C(C)C)O1 (configuration not stated)	17.7 µM

Test system: SF-295 CNS
Experiment: NCI tumour cell line growth inhibition, 48 h

SMILES	TGI
COC(=O)[C@@]1(C)/C(=N/NS(=O)(=O)c2ccc(C)cc2)CCC[C@@H]1C	> 100 µM
C=C(Nc1nc2ccc(C)cc2s1)C(=O)C(CC)C(=O)C(CC)CC1C(=O)NC(=O)NC1=O (configuration not stated)	> 100 µM
COc1ccc(OC)c(/C=C(/C#N)c2ccccc2)c1	> 100 µM
COC(=O)C(C(=O)Cc1ccccc1[N+](=O)[O-])C(=O)OC	> 100 µM
COCOC1C=CCCCC2=CC(C)=C(CC1)O2 (configuration not stated)	> 100 µM
CCCCC/C=C1\CCC(CN(C)C)C1=O (configuration not stated)	40.9 µM
C=CCN1CCC(O)(c2cc(C(=O)OCC)[nH]c2-c2cc(C)no2)C1 (configuration not stated)	> 100 µM
CN(C)/N=C1/CCC(C(F)(F)F)(C(F)(F)F)O1	> 100 µM
N#Cc1c(-c2ccc(Cl)cc2)c(C#N)c(=O)n(NS(=O)(=O)c2ccccc2)c1O	> 100 µM
COC(=O)c1nsc(OC)c1Cl	> 100 µM
CNCCCn1c2ccccc2c2c3c(c(-c4ccsc4)cc21)C(=O)NC3=O	1.71 µM
CN(CCN(C)C(=O)CCn1cc(F)c(=O)[nH]c1=O)C(=O)CCn1cc(F)c(=O)[nH]c1=O	> 100 µM
CCOC1c2cc(C(C)C)c(O)c(O)c2[C@@]23CCCC(C)(C)C2C1OC3=O (some centres not stated)	> 100 µM
C=CN1C(=O)[C@H](Oc2ccccc2)[C@@H]1c1ccccc1	> 100 µM
C=CCN(C(=O)CNC(=O)C(F)(F)F)c1cc(OCc2ccccc2)c2c(c1)c(C)cn2S(=O)(=O)c1ccccc1	> 100 µM
CSc1ccsc1-c1sc(-c2cc(SC)c(-c3sc(-c4cc(SC)c(-c5sccc5SC)s4)cc3SC)s2)cc1SC	> 100 µM
CS(=O)(=O)c1ccc(-c2cc(-c3ccc(S(C)(=O)=O)cc3)[n+](-c3cc(-c4ccccc4)c([O-])c(-c4ccccc4)c3)c(-c3ccc(S(C)(=O)=O)cc3)c2)cc1	> 100 µM
COC1(OC)CCCc2c1no[n+]2[O-]	> 100 µM
COc1ccc(C(C#N)NNC(=O)Cc2ccccc2)cc1OC (configuration not stated)	> 100 µM
CC(C)=CC1CC(=[N+]=[N-])C(=O)C1(C)C (configuration not stated)	> 100 µM
COc1cccc(C2CC23C(=O)NC(=O)NC3=O)c1 (configuration not stated)	> 100 µM
O=C(CSc1c2ccccc2nc2ccccc12)Nc1ccccc1-c1ccccc1NC(=O)CSc1c2ccccc2nc2ccccc12	> 81.2 µM
CC1(C)OC[C@@H]([C@H](O)C2C=CC(=O)S2)O1 (some centres not stated)	> 100 µM
O=C1c2ccccc2C(=O)c2c1nc1ccccc1c2-c1cncc(-c2c3c(nc4ccccc24)C(=O)c2ccccc2C3=O)c1	22.8 µM
O=S(=O)(c1ccccc1)N1N=C2c3ccccc3CCC[C@H]2C1c1ccccc1 (some centres not stated)	> 100 µM
CCOC(=O)/C(=C/c1ccc(N(C)C)cc1)N(CC)CC	> 100 µM
CC(C)[Si]1(C(C)C)OCC2OC3(CO)C(Oc4nc(=O)ccn43)C2O[Si](C(C)C)(C(C)C)O1 (configuration not stated)	29.6 µM

Test system: SK-MEL-2 melanoma
Experiment: NCI tumour cell line growth inhibition, 48 h

SMILES	TGI
COC(=O)[C@@]1(C)/C(=N/NS(=O)(=O)c2ccc(C)cc2)CCC[C@@H]1C	> 100 µM
C=C(Nc1nc2ccc(C)cc2s1)C(=O)C(CC)C(=O)C(CC)CC1C(=O)NC(=O)NC1=O (configuration not stated)	> 100 µM
COc1ccc(OC)c(/C=C(/C#N)c2ccccc2)c1	54.7 µM
COC(=O)C(C(=O)Cc1ccccc1[N+](=O)[O-])C(=O)OC	> 100 µM
CCCCC/C=C1\CCC(CN(C)C)C1=O (configuration not stated)	34.7 µM
C=CCN1CCC(O)(c2cc(C(=O)OCC)[nH]c2-c2cc(C)no2)C1 (configuration not stated)	> 100 µM
CN(C)/N=C1/CCC(C(F)(F)F)(C(F)(F)F)O1	90.6 µM
N#Cc1c(-c2ccc(Cl)cc2)c(C#N)c(=O)n(NS(=O)(=O)c2ccccc2)c1O	44 µM
C=C(C)C1CCC2(C)CC1c1c(c(C)cc3c1[nH]c1ccccc13)O2 (configuration not stated)	> 25 µM
CN(CCN(C)C(=O)CCn1cc(F)c(=O)[nH]c1=O)C(=O)CCn1cc(F)c(=O)[nH]c1=O	> 100 µM
CCOC1c2cc(C(C)C)c(O)c(O)c2[C@@]23CCCC(C)(C)C2C1OC3=O (some centres not stated)	> 100 µM
C=CN1C(=O)[C@H](Oc2ccccc2)[C@@H]1c1ccccc1	> 100 µM
C=CCN(C(=O)CNC(=O)C(F)(F)F)c1cc(OCc2ccccc2)c2c(c1)c(C)cn2S(=O)(=O)c1ccccc1	> 100 µM
CSc1ccsc1-c1sc(-c2cc(SC)c(-c3sc(-c4cc(SC)c(-c5sccc5SC)s4)cc3SC)s2)cc1SC	> 100 µM
CS(=O)(=O)c1ccc(-c2cc(-c3ccc(S(C)(=O)=O)cc3)[n+](-c3cc(-c4ccccc4)c([O-])c(-c4ccccc4)c3)c(-c3ccc(S(C)(=O)=O)cc3)c2)cc1	> 100 µM
COC1(OC)CCCc2c1no[n+]2[O-]	> 100 µM
COc1ccc(C(C#N)NNC(=O)Cc2ccccc2)cc1OC (configuration not stated)	> 100 µM
CC(C)=CC1CC(=[N+]=[N-])C(=O)C1(C)C (configuration not stated)	> 100 µM
COc1cccc(C2CC23C(=O)NC(=O)NC3=O)c1 (configuration not stated)	> 100 µM
O=C(CSc1c2ccccc2nc2ccccc12)Nc1ccccc1-c1ccccc1NC(=O)CSc1c2ccccc2nc2ccccc12	45.3 µM
CC1(C)OC[C@@H]([C@H](O)C2C=CC(=O)S2)O1 (some centres not stated)	77.1 µM
O=C1c2ccccc2C(=O)c2c1nc1ccccc1c2-c1cncc(-c2c3c(nc4ccccc24)C(=O)c2ccccc2C3=O)c1	44.6 µM
O=S(=O)(c1ccccc1)N1N=C2c3ccccc3CCC[C@H]2C1c1ccccc1 (some centres not stated)	> 100 µM
CCOC(=O)/C(=C/c1ccc(N(C)C)cc1)N(CC)CC	> 100 µM
CC(C)[Si]1(C(C)C)OCC2OC3(CO)C(Oc4nc(=O)ccn43)C2O[Si](C(C)C)(C(C)C)O1 (configuration not stated)	30.5 µM

Test system: SK-MEL-5 melanoma
Experiment: NCI tumour cell line growth inhibition, 48 h

SMILES	TGI
COC(=O)[C@@]1(C)/C(=N/NS(=O)(=O)c2ccc(C)cc2)CCC[C@@H]1C	> 100 µM
C=C(Nc1nc2ccc(C)cc2s1)C(=O)C(CC)C(=O)C(CC)CC1C(=O)NC(=O)NC1=O (configuration not stated)	> 100 µM
COc1ccc(OC)c(/C=C(/C#N)c2ccccc2)c1	94.5 µM
COC(=O)C(C(=O)Cc1ccccc1[N+](=O)[O-])C(=O)OC	> 100 µM
COCOC1C=CCCCC2=CC(C)=C(CC1)O2 (configuration not stated)	> 100 µM
CCCCC/C=C1\CCC(CN(C)C)C1=O (configuration not stated)	34.3 µM
C=CCN1CCC(O)(c2cc(C(=O)OCC)[nH]c2-c2cc(C)no2)C1 (configuration not stated)	> 100 µM
CN(C)/N=C1/CCC(C(F)(F)F)(C(F)(F)F)O1	52.6 µM
N#Cc1c(-c2ccc(Cl)cc2)c(C#N)c(=O)n(NS(=O)(=O)c2ccccc2)c1O	32.3 µM
COC(=O)c1nsc(OC)c1Cl	> 100 µM
CNCCCn1c2ccccc2c2c3c(c(-c4ccsc4)cc21)C(=O)NC3=O	2.16 µM
C=C(C)C1CCC2(C)CC1c1c(c(C)cc3c1[nH]c1ccccc13)O2 (configuration not stated)	> 25 µM
CN(CCN(C)C(=O)CCn1cc(F)c(=O)[nH]c1=O)C(=O)CCn1cc(F)c(=O)[nH]c1=O	> 100 µM
CCOC1c2cc(C(C)C)c(O)c(O)c2[C@@]23CCCC(C)(C)C2C1OC3=O (some centres not stated)	> 100 µM
C=CN1C(=O)[C@H](Oc2ccccc2)[C@@H]1c1ccccc1	> 100 µM
C=CCN(C(=O)CNC(=O)C(F)(F)F)c1cc(OCc2ccccc2)c2c(c1)c(C)cn2S(=O)(=O)c1ccccc1	> 100 µM
CSc1ccsc1-c1sc(-c2cc(SC)c(-c3sc(-c4cc(SC)c(-c5sccc5SC)s4)cc3SC)s2)cc1SC	> 100 µM
COC1(OC)CCCc2c1no[n+]2[O-]	> 100 µM
COc1ccc(C(C#N)NNC(=O)Cc2ccccc2)cc1OC (configuration not stated)	> 100 µM
CC(C)=CC1CC(=[N+]=[N-])C(=O)C1(C)C (configuration not stated)	> 100 µM
COc1cccc(C2CC23C(=O)NC(=O)NC3=O)c1 (configuration not stated)	> 100 µM
O=C(CSc1c2ccccc2nc2ccccc12)Nc1ccccc1-c1ccccc1NC(=O)CSc1c2ccccc2nc2ccccc12	28.3 µM
CC1(C)OC[C@@H]([C@H](O)C2C=CC(=O)S2)O1 (some centres not stated)	45.7 µM
O=C1c2ccccc2C(=O)c2c1nc1ccccc1c2-c1cncc(-c2c3c(nc4ccccc24)C(=O)c2ccccc2C3=O)c1	4.22 µM
O=S(=O)(c1ccccc1)N1N=C2c3ccccc3CCC[C@H]2C1c1ccccc1 (some centres not stated)	> 100 µM
CC(C)[Si]1(C(C)C)OCC2OC3(CO)C(Oc4nc(=O)ccn43)C2O[Si](C(C)C)(C(C)C)O1 (configuration not stated)	32.9 µM

Test system: SN12C renal
Experiment: NCI tumour cell line growth inhibition, 48 h

SMILES	TGI
COC(=O)[C@@]1(C)/C(=N/NS(=O)(=O)c2ccc(C)cc2)CCC[C@@H]1C	> 100 µM
C=C(Nc1nc2ccc(C)cc2s1)C(=O)C(CC)C(=O)C(CC)CC1C(=O)NC(=O)NC1=O (configuration not stated)	> 100 µM
COc1ccc(OC)c(/C=C(/C#N)c2ccccc2)c1	> 100 µM
COC(=O)C(C(=O)Cc1ccccc1[N+](=O)[O-])C(=O)OC	> 100 µM
COCOC1C=CCCCC2=CC(C)=C(CC1)O2 (configuration not stated)	> 100 µM
CCCCC/C=C1\CCC(CN(C)C)C1=O (configuration not stated)	30.1 µM
C=CCN1CCC(O)(c2cc(C(=O)OCC)[nH]c2-c2cc(C)no2)C1 (configuration not stated)	> 100 µM
CN(C)/N=C1/CCC(C(F)(F)F)(C(F)(F)F)O1	81 µM
N#Cc1c(-c2ccc(Cl)cc2)c(C#N)c(=O)n(NS(=O)(=O)c2ccccc2)c1O	> 100 µM
COC(=O)c1nsc(OC)c1Cl	> 100 µM
CNCCCn1c2ccccc2c2c3c(c(-c4ccsc4)cc21)C(=O)NC3=O	2.7 µM
C=C(C)C1CCC2(C)CC1c1c(c(C)cc3c1[nH]c1ccccc13)O2 (configuration not stated)	> 25 µM
CN(CCN(C)C(=O)CCn1cc(F)c(=O)[nH]c1=O)C(=O)CCn1cc(F)c(=O)[nH]c1=O	> 100 µM
CCOC1c2cc(C(C)C)c(O)c(O)c2[C@@]23CCCC(C)(C)C2C1OC3=O (some centres not stated)	> 100 µM
C=CN1C(=O)[C@H](Oc2ccccc2)[C@@H]1c1ccccc1	> 100 µM
C=CCN(C(=O)CNC(=O)C(F)(F)F)c1cc(OCc2ccccc2)c2c(c1)c(C)cn2S(=O)(=O)c1ccccc1	> 100 µM
CSc1ccsc1-c1sc(-c2cc(SC)c(-c3sc(-c4cc(SC)c(-c5sccc5SC)s4)cc3SC)s2)cc1SC	> 100 µM
CS(=O)(=O)c1ccc(-c2cc(-c3ccc(S(C)(=O)=O)cc3)[n+](-c3cc(-c4ccccc4)c([O-])c(-c4ccccc4)c3)c(-c3ccc(S(C)(=O)=O)cc3)c2)cc1	> 100 µM
COC1(OC)CCCc2c1no[n+]2[O-]	> 100 µM
COc1ccc(C(C#N)NNC(=O)Cc2ccccc2)cc1OC (configuration not stated)	> 100 µM
CC(C)=CC1CC(=[N+]=[N-])C(=O)C1(C)C (configuration not stated)	> 100 µM
